Laboratory results reported in US11878972B2, “Treatment of neurological disorders” (TORQUR AG, priority 2016, dated 2024).

What was measured:
[1] = system: female NMRI mice, nonepileptic (sham-SE) and epileptic (pilo-SE); test: Maximal electroshock seizure threshold test (MEST); format: in vivo, mouse
Description: A total of 166 adult female NMRI mice were used obtained from Charles River (Sulzfeld, Germany) at a weight range of 21-25 g (mice). Animals were kept under the following conditions: Housing: Animals were housed in groups of max. 8 mice under controlled conditions (temperature: 22±1° C.; humidity: 50% 60%/), under a 12-h light-dark cycle (lights on at 6:00 a.m.). Feeding: Standard laboratory chow (Altromin 1324 standard diet, Altromin Spezialfutter GmbH, Lage, Germany) was provided ad libitum. Drinking water: Tap water was provided ad libitum.
The MEST determines a population seizure threshold in groups of ˜20 animals and not the threshold for an individual animal. In the present study, the MEST was determined by a staircase procedure as previously described. A stimulator (BMT Medizintechnik, Berlin, Germany) that delivered a constant current (adjustable from 1-200 mA regardless of the impedance of the animal) with sinusoidal pulses (50/sec) for 0.2 sec was used.
Current administration was performed via bilateral transcorneal stimulation (using copper electrodes). Before transcorneal stimulation, a drop of tetracaine solution (2%) was administered to the eyes of the mouse for local anesthesia. Two minutes later, the mouse was restrained by hand to press the copper electrodes on both corneas while the stimulus was applied by stepping on a foot pedal switch connected with the stimulator. Electrodes were covered with soft leather and soaked with saline before each current application. […] The first stimulation was started with a current near to the control threshold.
3 (HCl): 40/100 mg in 10 ml (Suspension; 5% PEG 400 and 2% Tween 80, HPBCD (10%6)) • Cpd. 8 (HCl): 12.5/25 mg in 10 ml (5% PEG 400 and 2% Tween 80, HPBCD (10%))
Statistical analysis were calculated using Student's t-test. All tests were used two-sided; a P<0.05 was considered significant.
We performed no special tests for the determination of adverse effects. Mice were observed about 30 min after injection in their home cages for obvious sedation or reduction of wellbeing. Five minutes before electrical stimulation mice were again observed in their home cages and two minutes before stimulation during handling procedure for treatment with local anaesthesia. Every obvious variation from normal behavior was noted. Only phenobarbital induced noticeable sedation which lasted for more than 60 min. All other test drugs (including vehicle solutions) were tolerated without any obvious adverse effects.

[2] = system: S6 phosphorylation (S235/236); test: mTOR signaling in brain samples of pilocarpine pre-treated and naïve mice (western blot); format: in vivo, mouse; conditions: for decrease of S6 phosphorylation (S235/236) versus control: brain, 3 hours after single oral dose: Cpd. 3 40 mg/kg, Cpd. 8 25 mg/kg, everolimus 5 mg/kg
Description: A ramping-up dosing protocol was used which has the advantage that pilocarpine can be individually applied according to the susceptibility of each mouse. Pilocarpine (Sigma-Aldrich, Germany) was administered to female NMRI mice intraperitoneally at a dose of 100 mg/kg (Pilo-SE group). […] To reduce peripheral side effects of pilocarpine, methylscopolamine (Sigma-Aldrich, Germany) was administered 30 minutes prior to the first injection of pilocarpine. Animals were continuously monitored and duration of convulsive SE was registered [referred to Racine's scale. SE onset was defined as continuous ongoing seizure activity following occurrence of one or two generalized tonic-clonic seizures [stage 4 or 5 on the Racine scale]. SE was characterized by head nodding in an upright (sitting) body position, Straub tail, and slight to moderate convulsions of forelimbs, sometimes interrupted by further generalized tonic-clonic seizures. In order to reduce mortality, SE was terminated by diazepam (10 mg/kg i.p.; diazepam-ratiopharm 10, injection solution) 90 min after SE onset. […] In the sham-SE group mice were treated with the same treatment scheme as the pilo-SE group but pilocarpine was replaced by 0.9% sodium chloride solution. The mortality in the pilo-SE model in mice is relatively high (overall about 50%) and can vary markedly between experimental groups/days. Therefore we had to start with a large number of mice for SE induction in order to reliably obtain a group size of 20-22 animals for the MEST.
Brain samples from pilocarpine treated mice and untreated mice were snap frozen and tissue was lysed in buffer containing 25 mM Tris-HCl, pH 8, 50 mM NaCl, 0.5% (w/v) sodium deoxycholate (DOC), and 0.5% (w/v) Triton X-100 and supplemented with complete protease inhibitor (Roche, Mannheim, Germany) and Phosphostop (NEB, USA). Disruption of cell lysates was performed by drawing up the cell suspension twenty times into a syringe with a small gauge needle (21 G) on ice. Protein concentrations in the lysates were determined by using the Pierce BCA Protein Assay kit (Thermo Scientific, Bonn, Germany) according to the manufacturer's instructions. […] Membranes were incubated with primary antibodies anti S6 1:1000, anti S6 Phospho Serin (240/244) 1:1000, anti S6 Phospho Serin (235/236) 1:2000 (NEB) and anti-Actin 1:100 (Sigma-Aldrich) for 1 h in 2% milk in PBST at room temperature (RT) and washed three times for 10 min in PBS-T. Secondary antibodies anti-rabbit-HRP 1:1000 (Dako, Hamburg, Germany) were incubated for 1 h in 2% milk in PBST at RT and washed three times for 10 min in PBST. Proteins were detected by enhanced chemiluminescence using SuperSignal West Femto Chemiluminescent Substrate (Thermo Scientific) and the ChemiDoc system (Bio-Rad, Munich, Germany) with QuantityOne software (Bio-Rad) according to the manufacturer's protocol. Relative protein expressions were quantified densitometrically with QuantityOne (Bio-Rad) software and calculated by normalization to the reference signals of actin with GraphPad Prism software (GraphPad, San Diego, CA, USA).
Pilocarpine pre-treated and naïve mice were treated with a single oral dose of Cpd. 3 (40 mg/kg), Cpd. 8 (25 mg/kg), everolimus (5 mg/kg) or vehicle. 5 mice per group were utilized and sacrificed after 3 hours.

[3] = PK in B57BL/6J mice; conditions: for half-life: B57BL/6J, in vivo
Description: 8, 50 mg/kg was administered to B57BL/6J mice by gavage. Animals were housed in temperature controlled rooms with free access to food and water. Test items were weighed in a glass vial and dissolved first in DMSO. Tween 80 was added subsequently and finally, the formulation was completed with HPβCD 20%. […] Blood was collected in tubes containing K3-EDTA and stored on ice until centrifugation at 3000×g (10 min. 4° C.). The plasma supernatant was separated and kept at −20° C. until being assayed. Thigh muscle and brain of mice were snap frozen. The brain and muscle samples were homogenized in PBS using the Precellys 24/Dual homogeniser.
Samples were analyzed by LC-MS. Calibration standards were prepared by spiking 20 μl of drug free blank plasma with calibration solution. […] Samples were vigorously shaken and centrifuged for 10 minutes at 6000 g and 20° C. […] An aliquot was transferred to 200 μl sampler vials and subsequently subjected to LC-MS with an injection volume of 1.5 μl.

[4] = 12.5 mg/kg Cpd. 8 p.o., pretreatment 3 h
[5] = 25 mg/kg Cpd. 8 p.o., pretreatment 1 h
[6] = 25 mg/kg Cpd. 8 p.o., pretreatment 3 h
[7] = 25 mg/kg Cpd. 8 p.o., pretreatment 24 h
[8] = epileptic (pilocarpine pre-treated) mice
[9] = 40 mg/kg Cpd. 3 p.o., pretreatment 1 h
[10] = 40 mg/kg Cpd. 3 p.o., pretreatment 3 h
[11] = 100 mg/kg Cpd. 3 p.o., pretreatment 3 h

C[C@H]1COCCN1c1nc(-c2cnc(N)cc2C(F)F)nc(N2CCOCC2)n1 [Compound 8, (S)-4-(difluoromethyl)-5-(4-(3-methylmorpholino)-6-morpholino-1,3,5-triazin-2-yl)pyridin-2-amine]
Threshold difference between nonepileptic and epileptic [1, 4]: −1% | Threshold difference between vehicle and drug threshold, epileptic [1, 4]: −1% | Threshold difference between vehicle and drug threshold, nonepileptic [1, 4]: 8% | Threshold difference between nonepileptic and epileptic [1, 5]: −14% | Threshold difference between vehicle and drug threshold, epileptic [1, 5]: −9% | Threshold difference between nonepileptic and epileptic [1, 6]: −22% | Threshold difference between vehicle and drug threshold, epileptic [1, 6]: 6% | Threshold difference between vehicle and drug threshold, nonepileptic [1, 6]: 30% | Threshold difference between nonepileptic and epileptic [1, 7]: 5% | Threshold difference between vehicle and drug threshold, epileptic [1, 7]: −2% | decrease of the CC50 ([1]; Cpd. 8, epileptic mice, pretreatment time reduced to 1 h): 9% | decrease of S6 phosphorylation (S235/236) versus control [2, 8]: 2.8 fold | decrease of S6 phosphorylation (S235/236) versus control ([2]; naïve mice): 10.9 fold | half-life ([3]; mouse, oral, 50 mg/kg, half-life, as stated in the discussion of the Tsc1 GFAP study): 5 h | half-life ([3]; mouse, po, 50 mg/kg, half-life in mice (estimated), mice, single oral 50 mg/kg): 4.7 to 4.8 h | oral bioavailability ([3]; mice, single oral 50 mg/kg): good oral bioavailability

Nc1cc(C(F)F)c(-c2nc(N3C4CCC3COC4)nc(N3C4CCC3COC4)n2)cn1 [Compound 3, 5-(4-(3-oxa-8-azabicyclo[3.2.1]octan-8-yl)-6-(3-oxa-8-azabicyclo[3.2.1]octan-8-yl)-1,3,5-triazin-2-yl)-4-(difluoromethyl)pyridin-2-amine]
CC50 Pilo-SE (epileptic) [1, 9]: 17.99 ± 1.39 mA | CC50 Sham-SE (nonepileptic) [1, 9]: 15.14 ± 1.06 mA | Threshold difference between nonepileptic and epileptic [1, 9]: 19% | CC50 Pilo-SE (epileptic) [1, 10]: 18.20 ± 1.35 mA | CC50 Sham-SE (nonepileptic) [1, 10]: 17.49 ± 1.20 mA | Threshold difference between nonepileptic and epileptic [1, 10]: 4% | Threshold difference between vehicle and drug threshold, nonepileptic [1, 10]: 6% | CC50 Pilo-SE (epileptic) [1, 11]: 20.85 ± 1.38 mA | CC50 Sham-SE (nonepileptic) [1, 11]: 16.72 ± 1.72 mA | Threshold difference between nonepileptic and epileptic [1, 11]: 25% | Threshold difference between vehicle and drug threshold, epileptic [1, 11]: 9% | Threshold difference between vehicle and drug threshold, nonepileptic [1, 11]: 2% | anticonvulsant effect (overall) ([1]; parameters tested in this study): slight but inconsistent anticonvulsant effect | decrease of S6 phosphorylation (S235/236) versus control [2, 8]: 4.3 fold | S6 phosphorylation / mTOR signaling in brain (FIG. 3B) ([2]; epileptic/pilocarpine pre-treated and naïve mice, single oral dose): significantly inhibited S6 phosphorylation in brain | decrease of S6 phosphorylation (S235/236) versus control ([2]; naïve mice): 4.6 fold | Brain AUC ([3]; mouse, po, 50 mg/kg, single): 30600 ng·h/mL | Brain Cmax ([3]; mouse, po, 50 mg/kg, single): 7.7 µg/g
